Experimental data as given in PubChem BioAssay AID488890 (Southern Research Specialized Biocontainment Screening …, 2010).
Results filed as inconclusive are left out. Active and inactive are the calls of the source. The rule behind the calls is not given here.

These molecules were tested on Mycobacterium tuberculosis non-replicating, growth inhibition (assay: growth inhibition of non-replicating M. tuberculosis (AID 488890)).
For `CC(C)CN(Cc1c(O)ccc2ccccc12)CC(C)C`, the IC50 was 20.4 µM (inactive).
Work on `CCOc1ccc(Nc2cc(C)nc(-n3nc(C)cc3C)n2)cc1` yielded an IC50 of 3.32 µM.
In the case of `O=C(N/N=C/c1ccccn1)c1cccc(S(=O)(=O)Nc2ccccc2Cl)c1`, the IC50 is reported as 15.1 µM (inactive).
In the case of `COc1ccc(S(=O)(=O)N(C(C)=O)c2ccc(OC(C)=O)c3ccccc23)cc1[N+](=O)[O-]`, the IC50 is reported as 13.6 µM (inactive).
For `CCOCCOC(=O)COc1ccc2c(-c3ccccc3)cc(=O)oc2c1`, the IC50 was 0.98 µM.
Molecule `CC(=O)Nc1ccc(NC(=O)c2cc([N+](=O)[O-])cc([N+](=O)[O-])c2)cc1` has an IC50 of 8.92 µM.
`COc1cc2c(cc1OC)CN(C(=O)c1ccc([N+](=O)[O-])o1)CC2` showed an IC50 of 1.29 µM.
`Cc1ccc(NC(=O)CO/N=C/c2ccc(N(C)C)cc2)cc1` gave an IC50 of 7.84 µM.
With `C/C(=N\NC(=O)c1cccc(Br)c1)c1ccccn1` the IC50 was 3.65 µM.
Work on `O=C(CCNc1ccc(F)cc1)c1ccco1` yielded an IC50 of 6.12 µM.
In the case of `COc1cc(CNC(C)(C)CO)cc(Br)c1OCc1ccc(Cl)cc1Cl`, the IC50 is reported as 10 µM (inactive).
For `CCCNC(=O)OCC12CC3CC(CC(C3)C1)C2`, the IC50 was 0.65 µM.
Work on `O=c1[nH]c2ccccc2c2oc(CCl)nc12` yielded an IC50 of 4.22 µM.
For `COc1ccc2[nH]c3c(C)c4ccncc4c(C)c3c2c1`, the IC50 was 0.59 µM.
In the case of `COC(=O)c1cc(/C=C/c2ccccc2)on1`, the IC50 is reported as 2.18 µM.
In the case of `O=C(Nc1ccc(N2CCN(C(=O)c3ccco3)CC2)c(Cl)c1)c1cccs1`, the IC50 is reported as 9.56 µM.
`O=C(C/C=N\OCc1ccc([N+](=O)[O-])cc1)Nc1ccccc1` showed an IC50 of 4.57 µM.
`Cc1ccccc1OCC(=O)OCC(=O)c1ccc[nH]1` was tested, and the IC50 was 21.2 µM (inactive).
`COc1ccc(C2(O)CCN(CC(=O)Nc3nc(-c4ccccc4)cs3)CC2)cc1` was tested, and the IC50 was 24.2 µM (inactive).
Work on `O=C(NC12CC3CC(CC(C3)C1)C2)c1ccc([N+](=O)[O-])o1` yielded an IC50 of 5.44 µM.
`Cc1c(C(=O)N(C)C)sc2nc(-c3ccccn3)[nH]c(=O)c12` was tested, and the IC50 was 32.7 µM (inactive).
`CC(C)(C)/C(O)=C/c1nc2ccccc2oc1=O` gave an IC50 of 6.85 µM.
`COc1cccc(NC(=O)c2ccc(C(=O)c3ccccc3)o2)c1` was tested, and the IC50 was 3.36 µM.
With `O=C(CCSc1nnc(-c2ccncc2)o1)Nc1cccc(Cl)c1` the IC50 was 20.3 µM (inactive).
Molecule `O=C(Nc1nc2ccccc2[nH]1)c1cccc(Cl)c1` has an IC50 of 9.06 µM.
With `CCOC(=O)C1CCCN(Cc2nc(Cc3ccccc3Cl)no2)C1` (stereo unspecified) the IC50 was 27.1 µM (inactive).
`O=c1cc(-c2ccccc2Cl)oc2ccc([N+](=O)[O-])c(O)c12` was tested, and the IC50 was 1.59 µM.
In the case of `CC1CC(C)CN(C(=O)COC(=O)c2ccc([N+](=O)[O-])o2)C1` (stereo unspecified), the IC50 is reported as 5.18 µM.
`O=C(Nc1ncccn1)c1ccc([N+](=O)[O-])o1` gave an IC50 of 8.49 µM.
`O=C(N/N=C/C=C/c1ccccc1)c1ccccn1` gave an IC50 of 7.93 µM.
`O=C(OCC#CCSc1nc2ccccc2o1)c1ccco1` was tested, and the IC50 was 5.75 µM.
In the case of `O=C(OCCCOC(=O)c1ccc([N+](=O)[O-])o1)c1ccc([N+](=O)[O-])o1`, the IC50 is reported as 1.22 µM.
In the case of `O=C(NC1=NCCS1)c1ccc(-c2ccc(Cl)cc2)o1`, the IC50 is reported as 11.9 µM (inactive).
Work on `COC(=O)c1ccc(COC(=O)c2ccccn2)cc1` yielded an IC50 of 7.11 µM.
For `CC(C)OC(=O)CCCCCN1C(=O)CSC1=S`, the IC50 was 1.94 µM.
For `O=S(=O)(c1ccc(OCC2CO2)cc1)c1ccc(OCC2CO2)cc1` (stereo unspecified), the IC50 was 19.7 µM (inactive).
`O=C(Nc1ncc([N+](=O)[O-])s1)c1cccs1` was tested, and the IC50 was 11.2 µM (inactive).
With `Cc1ccccc1C1=N/C(=C/c2cccnc2)C(=O)O1` the IC50 was 19.9 µM (inactive).
For `CN(CC(=O)Nc1ccc(C#N)cc1)Cc1ccc(Cl)c(Cl)c1`, the IC50 was 12.9 µM (inactive).
For `CCOC(=O)C1CCN(C(=O)COc2cc(C)c(Br)c(C)c2)CC1`, the IC50 was 18.3 µM (inactive).
In the case of `CCn1c(-c2ccco2)nc2ccccc21`, the IC50 is reported as 8.99 µM.
`CC(C)(C)c1ccc(NC(=O)COc2ccc(-n3ccnc3)cc2)cc1` was tested, and the IC50 was 30.2 µM (inactive).
`CCOC(=O)COc1ccc(C(=O)Nc2cccc(Cl)c2C)cc1` showed an IC50 of 0.23 µM.
For `O=C1C(Nc2ccccc2)=C/C(=N/S(=O)(=O)c2cccs2)c2ccccc21`, the IC50 was 12 µM (inactive).
For `CCOCC(=O)Nc1nc2ccc(C)cc2s1`, the IC50 was 2.06 µM.
`COC(=O)COc1ccc(-c2ccccc2)cc1C=O` showed an IC50 of 8.95 µM.
In the case of `COc1cccc(N2C(=O)NC(=O)/C(=C/c3ccc([N+](=O)[O-])s3)C2=O)c1`, the IC50 is reported as 17.1 µM (inactive).
For `CC(C)(C)c1ccc(OCCC(=O)OCC(=O)NC2CC2)cc1`, the IC50 was 23.6 µM (inactive).
For `Cc1ccc(-c2nnc(COC(=O)c3cccs3)o2)cc1`, the IC50 was 13.8 µM (inactive).
Molecule `O=C(Nc1cccc(Cl)c1)Nc1nnc(-c2ccncc2)s1` has an IC50 of 2.69 µM.
With `O=C(NCc1ccco1)c1nc2ccccc2s1` the IC50 was 4.22 µM.
In the case of `CN(C)CCC(=O)N1c2ccccc2Sc2ccc(C(F)(F)F)cc21`, the IC50 is reported as 17.9 µM (inactive).
With `CCCCOC(=O)Cn1c(-c2ccccc2)nc2ccccc2c1=O` the IC50 was 11.3 µM (inactive).
`C=CCNCC(=O)N1N=C(c2ccc3ccccc3c2)CC1c1ccc(OC)cc1` (stereo unspecified) was tested, and the IC50 was 20.6 µM (inactive).
With `O=C(Nc1ncc(Cc2ccccc2)s1)C1=NCCN1` the IC50 was 9.49 µM.
In the case of `Oc1c(C(c2ccccc2Cl)N2CCCC2)ccc2cccnc12` (stereo unspecified), the IC50 is reported as 4.68 µM.
Molecule `CCCCN(CC)CCNC(=O)c1cc2c(-c3ccc(Cl)cc3)nn(C)c2s1` has an IC50 of 8.57 µM.
With `O=C(Nc1nnc(-c2ccco2)o1)c1ccc([N+](=O)[O-])s1` the IC50 was 22.4 µM (inactive).
In the case of `CC(Cc1ccccc1Sc1ccccc1)N(C)C` (stereo unspecified), the IC50 is reported as 26 µM (inactive).
In the case of `c1ccc(-c2n[nH]c(-c3ccccn3)n2)nc1`, the IC50 is reported as 6.04 µM.
With `COC(=O)CCS(=O)(=O)c1nc(-c2ccccc2)cc(C(F)(F)F)n1` the IC50 was 2.25 µM.
For `CCN(Cc1ccccc1)c1ccc(/C=N/N=C(N)N)cc1`, the IC50 was 5.74 µM.
`COC(=O)C1=C(N)OC2=C(C(=O)CC(C)(C)C2)C1c1cccnc1` (stereo unspecified) was tested, and the IC50 was 14.5 µM (inactive).
`CC(=O)c1ccc(OC(=O)c2ccc(-n3nc(C)cc3C)cc2)cc1` was tested, and the IC50 was 2.45 µM.
Work on `CCOC(=O)COc1cc(N)c(Cl)cc1Cl` yielded an IC50 of 5.21 µM.
In the case of `CCOc1cc(CNC(C)(C)CO)cc(Br)c1OCc1ccc(Cl)cc1Cl`, the IC50 is reported as 10.8 µM (inactive).
For `O=C(N/N=C/c1ccc(O)cc1)c1cccc(C(F)(F)F)c1`, the IC50 was 16 µM (inactive).
With `C/C(=N\NC(=O)c1ccccc1O)C1C(=O)c2ccccc2C1=O` the IC50 was 0.64 µM.
In the case of `NC(=O)C1CCN(C2CC(=O)NC2=O)CC1` (stereo unspecified), the IC50 is reported as 15.7 µM (inactive).
Molecule `O=C1C=CC(O)(c2cc(=O)c3c(O)cc(O)cc3o2)C=C1` has an IC50 of 2.61 µM.
For `O=C(CCNc1ccc(Cl)c(C(F)(F)F)c1)c1ccco1`, the IC50 was 5.63 µM.
For `CCC(C)NCCOc1ccc(C(C)(C)c2ccccc2)cc1` (stereo unspecified), the IC50 was 10.4 µM (inactive).
With `COc1cc(Cl)cc(/C=N/NC(N)=O)c1O` the IC50 was 10.2 µM (inactive).
With `CC(OC(=O)c1ccc([N+](=O)[O-])s1)C(=O)NC1CCCCC1C` (stereo unspecified) the IC50 was 0.24 µM.
With `Cc1ccc(S(=O)(=O)/N=C(\CCl)N2CCOCC2)cc1` the IC50 was 11.9 µM (inactive).
With `Cc1ccc(C2=NN(C)c3nc4ccccc4n3C2)cc1` the IC50 was 18.7 µM (inactive).
With `Cc1ccc(NC(CC(=O)c2ccccc2)C(=O)O)cc1Cl` (stereo unspecified) the IC50 was 8.32 µM.
`CCOC(=O)c1cc(-c2c(Cl)cccc2Cl)no1` was tested, and the IC50 was 2.22 µM.
With `Nc1nnnn1/N=C/C(Br)=C/c1ccccc1` the IC50 was 13.5 µM (inactive).
With `O=C(CCNc1cccc(F)c1)c1cccc([N+](=O)[O-])c1` the IC50 was 5.37 µM.
Molecule `COC(=O)c1sc(NC(=O)c2ccc([N+](=O)[O-])o2)c(C#N)c1C` has an IC50 of 4.3 µM.
In the case of `COc1ccc2c(c1)C(=C(C#N)C#N)C(=O)N2CCc1ccccc1`, the IC50 is reported as 25 µM (inactive).
`CCCOC(=O)c1ccc(NC(=O)c2ccc(Br)o2)cc1` showed an IC50 of 2.96 µM.
In the case of `CCCn1nnc(NC(=O)COc2ccc(CC)cc2)n1`, the IC50 is reported as 17.9 µM (inactive).
`O=C(N/N=C/c1ccc([N+](=O)[O-])s1)c1cccc(Br)c1` was tested, and the IC50 was 4.95 µM.
For `CCCCCCn1c(=O)c(C(=O)Nc2nnc(C)s2)c(O)c2ccccc21`, the IC50 was 4.29 µM.
`O=C(OCc1nnc(-c2ccccc2)o1)c1cc([N+](=O)[O-])ccc1Cl` gave an IC50 of 6.28 µM.
`NC(=O)N/N=C/c1ccccc1OC(=O)c1cc2ccccc2oc1=O` was tested, and the IC50 was 3.77 µM.
Molecule `COC(=O)C1CC(=O)N(c2ccc(OCc3ccccc3Cl)cc2)C1` (stereo unspecified) has an IC50 of 3.53 µM.
In the case of `COc1cccc(CNCCc2c[nH]c3ccccc23)c1OCc1ccc(F)cc1`, the IC50 is reported as 16.9 µM (inactive).
For `Cc1ccc(CNCc2cc(Cl)ccc2O)cc1`, the IC50 was 12.8 µM (inactive).
With `CC(C)c1nnc(NC(=O)c2sc3ccccc3c2Cl)s1` the IC50 was 9.84 µM.
In the case of `O=C(C/C=N\OCc1ccc([N+](=O)[O-])cc1)Nc1ccc(Br)cc1`, the IC50 is reported as 10.9 µM (inactive).
In the case of `CC(C)CSc1nnc2c3ccccc3n(C)c2n1`, the IC50 is reported as 26.3 µM (inactive).
For `O=C(N/N=C/c1cc([N+](=O)[O-])ccc1O)C12CC3CC(CC(C3)C1)C2`, the IC50 was 1.15 µM.
For `COc1ccccc1NC(=O)c1cnc(SC)nc1`, the IC50 was 22.3 µM (inactive).
`O=C(COC(=O)Cc1ccc(Br)cc1)Nc1ccc(N2CCOCC2)cc1` was tested, and the IC50 was 39.1 µM (inactive).
For `O=c1cc2[nH]c3ccccc3c(=O)n2nc1-c1ccccc1`, the IC50 was 7.1 µM.
In the case of `CC1Cc2ccccc2N1C(=O)COC(=O)c1ccc(Cl)nc1` (stereo unspecified), the IC50 is reported as 18.5 µM (inactive).
For `Cc1ccc(CCC(=O)Nc2ccccc2F)s1`, the IC50 was 26.2 µM (inactive).
`O=C1NC(=O)N(CCc2ccc(F)cc2)C(=O)/C1=C/C=C/c1ccccc1` gave an IC50 of 5.37 µM.
With `COC(=O)N/N=C/c1ccc([N+](=O)[O-])s1` the IC50 was 17 µM (inactive).
In the case of `CC(C)CNc1nc(=S)nc(N(C)C)[nH]1`, the IC50 is reported as 11.5 µM (inactive).
Molecule `Cc1cccc(C)c1N1C(=O)CC(N2CCSCC2)C1=O` (stereo unspecified) has an IC50 of 3.44 µM.
Molecule `Cc1ccccc1-n1ncc2c([N+](=O)[O-])cc([N+](=O)[O-])cc21` has an IC50 of 4.83 µM.
With `CCn1cc(/C=N\NC(=O)c2ccc(F)cc2)cn1` the IC50 was 24.3 µM (inactive).
For `Cc1cc(C)n2[nH]c(=O)c(N=Nc3cccc(C(F)(F)F)c3)c2n1`, the IC50 was 4.14 µM.
`N#CC1=C(N)Oc2n[nH]c(-c3cccnc3)c2C1c1ccc([N+](=O)[O-])o1` (stereo unspecified) showed an IC50 of 5.62 µM.
With `O=C1CSC(=S)N1Cc1cccnc1` the IC50 was 6.18 µM.
`CCc1ccc(OCC(=O)NNC(=O)c2cnccn2)c(Br)c1` showed an IC50 of 4.69 µM.
For `c1ccc(-c2nc3c(ccc4ccccc43)[nH]2)nc1`, the IC50 was 17.8 µM (inactive).
For `O=C(NCCc1c[nH]c2ccccc12)c1cc2ccccc2oc1=O`, the IC50 was 4.78 µM.
In the case of `Nc1ccc2nc3c(c(Cl)c2c1)CCCC3`, the IC50 is reported as 13.4 µM (inactive).
`CCOC(=O)COc1ccc2c(=O)cc(-c3ccccc3)oc2c1` gave an IC50 of 0.83 µM.
Molecule `O=C(NCCC1CCCC1)c1cccs1` has an IC50 of 1.37 µM.
`O=C(COc1ccc2ccccc2c1)Nc1ccncc1` showed an IC50 of 3.17 µM.
